Measured values reported in patent US8614223B2, “Pyrimidine hydroxy amide compounds as protein deacetylase inhibitors and methods of use thereof” (Acetylon Pharmaceuticals, Inc., priority 2010, dated 2013).

How the values were obtained:
HDAC3 = HDAC3 (Homo sapiens (Human), UniProt O15379); experiment: HDAC enzyme assay, HDAC3; settings: for HDAC3 fold over HDAC6 IC50 (selectivity for HDAC6): ratio HDAC3/HDAC6; for IC50: read-out: HDAC3 IC50
HDAC1 = HDAC1 (Homo sapiens (Human), UniProt Q13547); experiment: HDAC enzyme assay, HDAC1; settings: for HDAC1 fold over HDAC6 IC50 (selectivity for HDAC6): ratio HDAC1/HDAC6; for IC50: read-out: HDAC1 IC50
HDAC2 = HDAC2 (Homo sapiens (Human), UniProt Q92769); experiment: HDAC enzyme assay, HDAC2; settings: for HDAC2 fold over HDAC6 IC50 (selectivity for HDAC6): ratio HDAC2/HDAC6; for IC50: read-out: HDAC2 IC50
HDAC6 = HDAC6 (Homo sapiens (Human), UniProt Q9UBN7); settings: read-out: HDAC6 IC50
Chain of HDAC6 (Q9UBN7 whole entry): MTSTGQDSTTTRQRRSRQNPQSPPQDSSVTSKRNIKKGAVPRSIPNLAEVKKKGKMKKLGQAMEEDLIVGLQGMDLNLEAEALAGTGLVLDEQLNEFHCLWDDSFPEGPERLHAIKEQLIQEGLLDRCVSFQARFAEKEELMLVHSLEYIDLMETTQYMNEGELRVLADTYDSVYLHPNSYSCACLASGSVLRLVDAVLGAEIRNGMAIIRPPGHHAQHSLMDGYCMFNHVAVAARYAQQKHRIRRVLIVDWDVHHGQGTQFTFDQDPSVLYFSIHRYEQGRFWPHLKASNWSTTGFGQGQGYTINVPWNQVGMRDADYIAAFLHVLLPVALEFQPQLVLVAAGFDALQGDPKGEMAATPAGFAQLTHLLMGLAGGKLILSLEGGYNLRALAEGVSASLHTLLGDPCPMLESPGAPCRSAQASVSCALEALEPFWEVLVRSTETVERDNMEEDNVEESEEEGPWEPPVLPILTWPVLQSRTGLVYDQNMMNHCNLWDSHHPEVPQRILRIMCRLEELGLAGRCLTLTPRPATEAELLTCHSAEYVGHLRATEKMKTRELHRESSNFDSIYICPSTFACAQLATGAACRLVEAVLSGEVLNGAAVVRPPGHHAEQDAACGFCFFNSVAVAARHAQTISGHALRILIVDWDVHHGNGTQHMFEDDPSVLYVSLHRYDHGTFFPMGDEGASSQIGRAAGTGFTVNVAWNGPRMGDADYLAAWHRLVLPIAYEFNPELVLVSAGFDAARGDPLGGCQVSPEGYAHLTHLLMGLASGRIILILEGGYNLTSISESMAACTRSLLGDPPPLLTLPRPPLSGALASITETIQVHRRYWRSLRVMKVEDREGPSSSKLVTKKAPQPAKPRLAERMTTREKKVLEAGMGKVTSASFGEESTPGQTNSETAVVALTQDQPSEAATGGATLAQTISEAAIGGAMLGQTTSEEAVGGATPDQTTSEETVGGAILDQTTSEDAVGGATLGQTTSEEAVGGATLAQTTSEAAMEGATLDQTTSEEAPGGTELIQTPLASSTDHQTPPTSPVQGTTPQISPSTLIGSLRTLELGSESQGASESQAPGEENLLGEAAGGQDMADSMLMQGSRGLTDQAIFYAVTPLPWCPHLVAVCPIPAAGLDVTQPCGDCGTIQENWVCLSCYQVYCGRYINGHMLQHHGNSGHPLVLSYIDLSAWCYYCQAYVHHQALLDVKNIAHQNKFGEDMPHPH

Chain of HDAC1 (Q13547 whole entry): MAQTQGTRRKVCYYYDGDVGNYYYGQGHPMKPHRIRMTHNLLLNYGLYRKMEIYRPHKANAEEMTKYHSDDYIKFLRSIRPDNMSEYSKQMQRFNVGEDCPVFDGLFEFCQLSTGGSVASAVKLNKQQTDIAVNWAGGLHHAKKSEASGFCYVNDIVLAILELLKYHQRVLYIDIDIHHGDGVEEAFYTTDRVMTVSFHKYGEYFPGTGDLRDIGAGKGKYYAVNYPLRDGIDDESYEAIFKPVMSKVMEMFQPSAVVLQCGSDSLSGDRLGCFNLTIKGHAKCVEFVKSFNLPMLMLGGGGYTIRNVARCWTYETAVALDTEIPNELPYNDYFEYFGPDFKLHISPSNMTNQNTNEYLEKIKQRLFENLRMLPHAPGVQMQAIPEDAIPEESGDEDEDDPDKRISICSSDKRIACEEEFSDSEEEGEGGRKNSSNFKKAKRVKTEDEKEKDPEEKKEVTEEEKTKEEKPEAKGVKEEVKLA
Chain of HDAC3 (O15379 whole entry): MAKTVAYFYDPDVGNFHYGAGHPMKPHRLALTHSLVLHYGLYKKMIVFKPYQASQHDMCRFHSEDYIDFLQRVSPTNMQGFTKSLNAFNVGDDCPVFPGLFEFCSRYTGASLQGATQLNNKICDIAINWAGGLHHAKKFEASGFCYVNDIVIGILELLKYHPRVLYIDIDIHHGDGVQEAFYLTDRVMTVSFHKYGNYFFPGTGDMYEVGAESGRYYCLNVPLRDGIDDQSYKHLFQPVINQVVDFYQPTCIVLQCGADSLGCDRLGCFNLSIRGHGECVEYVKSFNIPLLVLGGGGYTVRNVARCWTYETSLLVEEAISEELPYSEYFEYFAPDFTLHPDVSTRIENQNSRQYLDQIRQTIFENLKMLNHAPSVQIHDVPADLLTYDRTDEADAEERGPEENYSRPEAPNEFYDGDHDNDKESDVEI
Chain of HDAC3 (Q9Y618 395-489 partner): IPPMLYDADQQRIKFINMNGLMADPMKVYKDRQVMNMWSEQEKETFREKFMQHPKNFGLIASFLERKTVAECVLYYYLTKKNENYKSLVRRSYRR
Chain of HDAC2 (Q92769 whole entry): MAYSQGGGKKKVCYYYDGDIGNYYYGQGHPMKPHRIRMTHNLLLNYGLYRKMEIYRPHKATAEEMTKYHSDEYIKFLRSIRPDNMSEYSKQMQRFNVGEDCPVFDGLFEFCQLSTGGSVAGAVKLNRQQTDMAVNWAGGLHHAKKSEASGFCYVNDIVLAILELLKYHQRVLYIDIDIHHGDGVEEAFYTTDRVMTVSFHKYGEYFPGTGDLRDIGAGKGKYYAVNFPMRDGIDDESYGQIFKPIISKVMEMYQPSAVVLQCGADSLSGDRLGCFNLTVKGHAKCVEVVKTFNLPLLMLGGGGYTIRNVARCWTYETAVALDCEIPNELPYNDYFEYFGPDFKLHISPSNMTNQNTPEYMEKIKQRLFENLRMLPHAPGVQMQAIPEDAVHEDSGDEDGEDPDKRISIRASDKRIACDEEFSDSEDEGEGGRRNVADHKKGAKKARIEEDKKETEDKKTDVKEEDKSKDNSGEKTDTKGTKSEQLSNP

| Structure (SMILES) | HDAC3 fold over HDAC6 IC50 (selectivity for HDAC6) (HDAC3) | IC50 (HDAC3) | HDAC1 fold over HDAC6 IC50 (selectivity for HDAC6) (HDAC1) | IC50 (HDAC1) | HDAC2 fold over HDAC6 IC50 (selectivity for HDAC6) (HDAC2) | IC50 (HDAC2) | IC50 (HDAC6) |
| --- | --- | --- | --- | --- | --- | --- | --- |
| O=C(NO)c1cnc(NCc2ccccc2)nc1 [Compound 35] | (70x) | 128 nM | (42.3x) | 77 nM | (76.2x) | 140 nM | 2 nM |
| O=C(NO)c1cnc(Nc2cccc(-c3ccncc3)c2)nc1 [Compound 30] | (44.1x) | 141 nM | (27.5x) | 88 nM | (56.5x) | 181 nM | 3 nM |
| O=C(NO)c1cnc(NC23CC4CC(CC(C4)C2)C3)nc1 [Compound 58] | (119.5x) | 1080 nM | (60.8x) | 552 nM | (77.2x) | 701 nM | 9 nM |
| O=C(NO)c1cnc(Nc2cc(F)cc(C(F)(F)F)c2)nc1 [Compound 26] | (53.4x) | 270 nM | (31.4x) | 159 nM | (68.3x) | 345 nM | 5 nM |
| O=C(NO)c1cnc(NCc2cnccn2)nc1 [Compound 77] | (98.1x) | 434 nM | (74x) | 328 nM | (76.9x) | 340 nM | 4 nM |
| O=C(NO)c1cnc(NCc2ccccn2)nc1 [Compound 108] | (68.3x) | 355 nM | (42.1x) | 219 nM | (60.3x) | 313 nM | 5 nM |
| O=C(NO)c1cnc(Nc2cc(Cl)ccc2Cl)nc1 [Compound 12] | (23.5x) | 352 nM | (14.1x) | 212 nM | (30.2x) | 453 nM | 15 nM |
| O=C(NO)c1cnc(NC2(c3ccccc3)CCCC2)nc1 [Compound 88] | (679.1x) | 2240 nM | (215.2x) | 711 nM | (296.1x) | 978 nM | 3 nM |
| O=C(NO)c1cnc(Nc2ccc([N+](=O)[O-])c(C(F)(F)F)c2)nc1 [Compound 10] | (42.6x) | 430 nM | (32.6x) | 329 nM | (62.5x) | 631 nM | 10 nM |
| O=C(NO)c1cnc(NC(c2ccc(F)cc2)c2ccc(F)cc2)nc1 [Compound 89] | (158.8x) | 549 nM | (64.4x) | 223 nM | (78.1x) | 270 nM | 3 nM |
| COc1cc(Nc2ncc(C(=O)NO)cn2)cc(OC)c1 [Compound 23] | (100.2x) | 257 nM | (60.4x) | 155 nM | (134x) | 343 nM | 3 nM |
| O=C(NO)c1cnc(NC2(c3cccc(F)c3)CCCCC2)nc1 [Compound 101] | (1498.8x) | 11200 nM | (283.5x) | 2120 nM | (343.2x) | 2570 nM | 7 nM |
| O=C(NO)c1cnc(Nc2c(F)c(F)cc(F)c2F)nc1 [Compound 16] | (28.3x) | 600 nM | (15.7x) | 332 nM | (18.1x) | 384 nM | 21 nM |
| O=C(NO)c1cnc(Nc2cccc(C(F)(F)F)c2)nc1 [Compound 22] | (117x) | 313 nM | (83.1x) | 222 nM | (166.7x) | 446 nM | 3 nM |
| Cc1ccc(C2(Nc3ncc(C(=O)NO)cn3)CC2)cc1 [Compound 93] | (51x) | 157 nM | (25.9x) | 80 nM | (34.7x) | 107 nM | 3 nM |
| O=C(NO)c1cnc(Nc2c(Cl)cccc2Cl)nc1 [Compound 20] | (18.9x) | 16300 nM | (12.3x | 10600 nM | (20.1x) | 17300 nM | 864 nM |
| Cc1cc(C)cc(Nc2ncc(C(=O)NO)cn2)c1 [Compound 19] | (88x) | 319 nM | (69.1x) | 251 nM | (131.7x) | 478 nM | 4 nM |
| O=C(NO)c1cnc(NCCc2cccc(Cl)c2)nc1 [Compound 42] | (32.3x) | 130 nM | (19.5x) | 78 nM | (24.1x) | 97 nM | 4 nM |
| CC(Nc1ncc(C(=O)NO)cn1)(c1ccccc1)c1ccccc1 [Compound 79] | (817.2x) | 4680 nM | (221.6x) | 1270 nM | (319.8x) | 1830 nM | 6 nM |
| O=C(NO)c1cnc(NCc2ccc(Cl)cc2)nc1 [Compound 36] | (33x) | 75 nM | (17.5x) | 40 nM | (31.2x) | 71 nM | 2 nM |

Second part, the molecule after the results:

| HDAC3 fold over HDAC6 IC50 (selectivity for HDAC6) (HDAC3) | IC50 (HDAC3) | HDAC1 fold over HDAC6 IC50 (selectivity for HDAC6) (HDAC1) | IC50 (HDAC1) | HDAC2 fold over HDAC6 IC50 (selectivity for HDAC6) (HDAC2) | IC50 (HDAC2) | IC50 (HDAC6) | Structure (SMILES) |
| --- | --- | --- | --- | --- | --- | --- | --- |
| (176x) | 1220 nM | (37.9x) | 262 nM | (34x) | 236 nM | 7 nM | O=C(NO)c1cnc(NC2(c3cc(F)cc(F)c3)CCOCC2)nc1 [Compound 155] |
| (18.5x) | 70 nM | (7.1x) | 27 nM | (5.5x) | 21 nM | 4 nM | O=C(NO)c1cnc(NC2(c3ccc(C(F)(F)F)c(F)c3)CC2)nc1 [Compound 137] |
| (206.7x) | 843 nM | (79.5x) | 324 nM | (94.3x) | 385 nM | 4 nM | O=C(NO)c1cnc(NC2(Cc3ccccc3)CC2)nc1 [Compound 109] |
| (54x) | 189 nM | (18.2x) | 64 nM | (20.9x) | 73 nM | 3 nM | Cc1cc(C(F)(F)F)cc(C2(Nc3ncc(C(=O)NO)cn3)CC2)c1 [Compound 147] |
| (70x) | 1330 nM | (48x) | 911 nM | (40.5x) | 767 nM | 19 nM | O=C(NO)c1cnc(NC2c3ccccc3-c3ccccc32)nc1 [Compound 111] |
| (677.2x) | 2160 nM | (182.9x) | 583 nM | (193.1x) | 615 nM | 3 nM | O=C(NO)c1cnc(NC2(c3ccc(F)cc3)CCCC2)nc1 [Compound 148] |
| (197.8x) | 3940 nM | (44.8x) | 893 nM | (45x) | 898 nM | 20 nM | COc1ccc(C2(Nc3ncc(C(=O)NO)cn3)CCCCC2)cc1 [Compound 122] |
| (18.3x) | 58 nM | (7.9x) | 25 nM | (10.8x) | 34 nM | 3 nM | O=C(NO)c1cnc(NC2(c3ccc(F)cc3Cl)CC2)nc1 [Compound 144] |
| (414.9x) | 1370 nM | (176.6x) | 584 nM | (143.8x) | 476 nM | 3 nM | O=C(NO)c1cnc(NC2(c3cccc(F)c3)CCCC2)nc1 [Compound 151] |
| (80.8x) | 316 nM | (24.4x) | 95 nM | (24.4x) | 96 nM | 4 nM | O=C(NO)c1cnc(NC2(c3cc(F)cc(F)c3)CC2)nc1 [Compound 132] |
